The text below walks through data of patent US4963573A, “[[[(3-pyridinyl)methylen]amino]oxy]alkanoic acids and esters” (Janssen Pharmaceutica N.V., priority 1989, dated 1990).

Read-outs that look alike come from different tables or passages of the source.

In assay [1] the test system is thromboxane A2 biosynthesis. Description: Platelet malondialdehyde (MDA) production in vitro, human platelets in plasma, thrombin stimulated. Type of assay: cell-based. The conditions noted are these: human platelet-rich plasma, thrombin 20 N.I.H. U/ml, 10 min pre-incubation at 37° C., 30 min reaction, 50% inhibition vs solvent. Here is the method:
(§1) MDA production by platelets in plasma, as an indicator of the thromboxane A2 biosynthesis, was evaluated spectrofluometrically. […] After 30 min at 37° C., the reaction was terminated by the addition of 1 ml of 10% (w/v) trichloroacetic acid. After isolation of the supernatant by centrifugation at 320 g for 20 min, the thiobarbituric acid reaction for MDA was performed using acid-hydrolyzed 1,1,3,3-tetramethoxypropane as a standard. The fluorescence of the samples at 553 nm after excitation at 510 nm was measured. The results were calculated as nM MDA/10^8 platelets/30 min and were expressed as a percentage inhibition produced by the compounds relative to the formation of MDA after thrombin stimulation in the solvent. For in vitro experiments, human platelets in plasma were used. Percentage inhibition was calculated versus the solvent value.

The subject of assay [2] is thromboxane A2 biosynthesis. Description: Platelet malondialdehyde (MDA) production in vivo, male Wistar rats. To be noted: Rattus norvegicus, read-out: MDA production in vivo ED50-values. Here is the method:
as §1, with “After isolation of the supernatant by centrifugation at 320 g for 20 min, the thiobarbituric acid reaction for MDA was performed using acid-hydrolyzed 1,1,3,3-tetramethoxypropane as a standard.” left out
For in vivo experiments male Wistar rats were fasted overnight. 2 Hours before blood sampling they were treated with the test compound solution/suspension or the solvent. […] ED50 -values were determined by probit analysis.

Where [3] appears, read: male Wistar rats fasted overnight, treated 2 hours before blood sampling, 50% inhibition relative to MDA values with solvent, probit analysis.

In general, IC50 refers to the concentration at which inhibition is half-maximal. A lower IC50 goes with higher potency. One may read the ED50 as the dose at which the effect has come halfway, by size or by number of responders. Turning to `O=C(O)CCCCO/N=C(/c1cccnc1)c1ccsc1` [Compound 84], the IC50 in assay [1] turned out to be 110 nM. Moreover, the ED50 in assay [2] (setting [3]) is 0.17 mg/kg.
Molecule `O=C(O)CCCCO/N=C(\c1ccccc1)c1cccnc1` [Compound 65] registered an IC50 in assay [1] of 66 nM. Besides, the ED50 in assay [2] (setting [3]) was found to be 0.045 mg/kg.
For `O=C(O)CCCCO/N=C(/c1cccnc1)c1cccc2ccccc12` [Compound 93, (E)-5-[[[(1-naphthalenyl)(3-pyridinyl)methylen]amino]oxy]pentanoic acid], in that order: 10 nM and 0.014 mg/kg.
The like results for `Cc1cccc(/C(=N\OCCCCC(=O)O)c2cccnc2)c1` [Compound 90, (E)-5-[[[(3-methylphenyl)(3-pyridinyl)methylen]amino]oxy]pentanoic acid] were, in that order, 24 nM and 0.013 mg/kg.
In the case of `CCOC(=O)CCCCO/N=C(\c1ccccc1)c1cccnc1` [Compound 9], the IC50 in assay [1] was under 100 nM.
In turn, `COc1ccc(C(=NOCCCCC(=O)O)c2cccnc2)cc1` [Compound 69] registered a concentration for half-maximal inhibition (IC50) in assay [1] of 100 nM. For the same molecule, the ED50 in assay [2] (setting [3]) was 0.17 mg/kg.
In assay [1], `CCCC/C(=N\OCCCCC(=O)O)c1cccnc1` [Compound 86] had an IC50 of 63 nM. The ED50 in assay [2] (setting [3]) is over 0.16 mg/kg.
For `COc1ccc(C(=NOCCCCC(=O)O)c2cccnc2)cc1OC` [Compound 82], in that order: 110 nM and 0.056 mg/kg.
For `O=C(O)CCCCON=C(c1ccc(F)cc1)c1cccnc1` [Compound 73], in that order: 300 nM and 0.2 mg/kg.
For `O=C(O)CCCCON=C(c1cccnc1)c1cccnc1` [Compound 70], in that order: 180 nM and 1.2 mg/kg.
`O=C(O)CCCCO/N=C(\Cc1ccccc1)c1cccnc1` [Compound 68] came in with an IC50 in assay [1] of 75 nM. Further, the ED50 in assay [2] (setting [3]) turned out to be 1 mg/kg.
In assay [1], `O=C(O)CCCCON=C(c1ccccc1)c1cccnc1` [Compound 4, (E+Z)-5-[[[phenyl(3-pyridinyl)methylen]amino]oxy]pentanoic acid] registered an IC50 of 100 nM. Further, the ED50 in assay [2] (setting [3]) worked out at 0.059 mg/kg.
As to `Cc1cccc(C(=NOCCCCC(=O)O)c2cccnc2)c1` [Compound 89], in assay [1], the IC50 was 43 nM. Moreover, the ED50 in assay [2] (setting [3]) was 0.02 mg/kg.
Molecule `O=Cc1cccc(C(=NOCCCCC(=O)O)c2cccnc2)c1` [Compound 116, (E+Z)-5-[[[(3-formylphenyl)(3-pyridinyl)methylen]amino]oxy]pentanoic acid] gave an IC50 in assay [1] of 100 nM.
Molecule `O=C(O)CCCCON=C(c1cccnc1)c1cccc2ccccc12` [Compound 74] had an IC50 in assay [1] of 23 nM. In addition, the ED50 in assay [2] (setting [3]) was 0.023 mg/kg.
The like results for `O=C(O)CCCCON=C(c1cccnc1)c1ccc2ccccc2c1` [Compound 78] were, in that order, 240 nM and 0.044 mg/kg.
Take `Cc1ccc(C(=NOCCCCC(=O)O)c2cccnc2)cc1` [Compound 72]: in assay [1], inhibition was half-maximal at 120 nM (IC50). The ED50 in assay [2] (setting [3]) is 0.041 mg/kg.
In turn, `O=C(O)CCCCO/N=C(/c1cccnc1)c1cccc2ccccc12` [Compound 123, sodium (E)-5-[[[(1-naphthalenyl)(3-pyridinyl)methylen]amino]oxy]pentanoate] yielded an IC50 in assay [1] (Homo sapiens, Platelet) of 18 nM.
In assay [1], `COC(OC)c1ccccc1/C(=N\OCCCCC(=O)O)c1cccnc1` [Compound 87] registered an IC50 of 24 nM. The ED50 in assay [2] (setting [3]) is over 0.16 mg/kg.
`O=C(O)CCCCO/N=C(/c1cccnc1)c1cccs1` [Compound 76] gave an IC50 in assay [1] of 120 nM. Further, the ED50 in assay [2] (setting [3]) turned out to be 0.068 mg/kg.
For the molecule `O=C([O-])CCCCO/N=C(\c1ccccc1)c1cccnc1.[Na+]` [Compound 122, sodium (E)-5-[[[phenyl(3-pyridinyl)methylen]amino]oxy]pentanoate], the IC50 in assay [1] (Homo sapiens, Platelet) was 81 nM. In addition, in assay [2] (2 h), the ED50 is under 0.16 mg/kg.
In assay [1], `O=C(O)CCCCO/N=C(/c1cccnc1)c1cc(C(F)(F)F)cc(C(F)(F)F)c1` [Compound 92] gave a half-maximal inhibitory concentration (IC50) of 33 nM. The ED50 in assay [2] (setting [3]) was 0.01 mg/kg.
As for `O=C(O)CCCCO/N=C(/c1cccnc1)c1cccc(C(F)(F)F)c1` [Compound 63, (E)-5-[[[(3-pyridinyl)[3-(trifluoromethyl)phenyl]methylen]amino]oxy]pentanoic acid], the IC50 in assay [1] turned out to be 22 nM. In addition, the ED50 in assay [2] (setting [3]) came to 0.012 mg/kg.
Regarding `O=C(O)CCCCON=C(c1cccnc1)c1ccccc1C(F)(F)F` [Compound 94], the IC50 in assay [1] is 32 nM.
Consider `O=C([O-])CCCCO/N=C(/c1cccnc1)c1cccc(C(F)(F)F)c1.[Na+]` [Compound 121, sodium (E)-5-[[[(3-pyridinyl)[3-(trifluoromethyl)phenyl]methylen]amino]oxy]pentanoate], for which the IC50 in assay [1] (Homo sapiens, Platelet) turned out to be 14 nM. Further, the ED50 in assay [2] (2 h) is 0.015 mg/kg.
